From PubChem BioAssay (NCI)
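Protocol summary: plate cells (96-well), add compound at 5 concentrations, incubate 48 h, interpolate endpoints linearly. TGI: concentration producing complete growth inhibition.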 Residues, ends and D or L forms follow the SMILES beside them. *: point of attachment. Boc = CC(C)(C)OC(=O)*; OBn = c1ccc(CO*)cc1

Assays:
Assay in all cases: inhibition of tumour cell growth, NCI panel, 48 h
[1] = system: HOP-92 NSCLC
[2] = system: OVCAR-4 ovarian
[3] = system: SK-OV-3 ovarian
[4] = system: T-47D breast
[5] = system: CAKI-1 renal
[6] = system: SF-539 CNS
[7] = system: NCI-H23 lung
[8] = system: UACC-62 melanoma
[9] = system: DU-145 prostate
[10] = system: MDA-MB-435
[11] = system: NCI-H522 lung
[12] = system: NCI-H226 lung
[13] = system: HOP-62 NSCLC
[14] = system: EKVX NSCLC
[15] = system: K-562 leukemia
[16] = system: CCRF-CEM leukemia
[17] = system: OVCAR-3 ovarian
[18] = system: SF-295 CNS
[19] = system: M14 melanoma
[20] = system: MCF7 breast

Structure (SMILES) | TGI [1] [µM] | TGI [2] [µM] | TGI [3] [µM] | TGI [4] [µM] | TGI [5] [µM] | TGI [6] [µM] | TGI [7] [µM] | TGI [8] [µM] | TGI [9] [µM] | TGI [10] [µM] | TGI [11] [µM] | TGI [12] [µM] | TGI [13] [µM] | TGI [14] [µM] | TGI [15] [µM] | TGI [16] [µM] | TGI [17] [µM] | TGI [18] [µM] | TGI [19] [µM] | TGI [20] [µM]
Cc1sc(C)c2c1C(=O)CC2N (stereo not given) | 40.7 | > 75.6 | > 100 | > 83 | 28.9 | 14.2 | > 96.2 | > 100 | 30.3 | 53.6 | 10.9 | > 54.9 | > 100 | > 100 | > 56.1 | 6.68 | 32.8 | > 100 | 27.6 | 
CC(C)CC(NC(=O)OC(C)(C)C)C(=O)N1CCCC1C(=O)OCc1ccccc1 (stereo not drawn) (Boc-Leu-Pro-OBn; configuration not given here) | > 100 | > 100 | > 100 | > 100 | > 100 | > 100 | > 100 | > 100 | > 100 | > 100 | > 100 | > 100 |  | > 100 | > 100 |  | > 100 | > 100 | > 100 | > 100
O=[N+]([O-])/C(C(Cl)=C(Cl)Cl)=C(\Nc1ccccc1)n1nnc2ccccc21 |  | 35 | > 100 | > 100 | > 100 | > 100 | 61.2 | > 100 |  | 86.5 |  | > 100 | 93.6 | > 100 | > 100 | 65.9 | > 100 | > 100 | > 100 | > 100
CO[C@@H]1C[C@H]2N3CC[C@@]2(c2cc4c(cc2C3)OCO4)[C@H]2O[C@@H]12 | > 100 | > 100 | > 100 |  | > 100 | 2.88 | > 100 | > 100 | > 100 | > 100 | > 100 | 4.59 | > 100 | > 100 | > 100 | > 100 | > 100 | > 100 | > 100 | > 100
COc1cc([C@@]23OC[C@@H]4[C@@H](OC[C@@H]42)c2cc4c(cc23)OCO4)cc(OC)c1OC |  | > 100 |  | > 100 | > 100 | > 47.1 | > 100 | > 100 | > 100 | > 100 | < 0.01 |  | > 100 |  | > 100 | > 100 |  | > 100 | > 100 | > 100
COC(=O)c1ccccc1/C=C1\Cc2c(C)cc(C)cc2C1=O | > 100 | > 100 |  | > 100 | > 100 | > 100 |  | > 100 |  |  | > 100 | > 100 | > 100 | > 100 | > 100 | > 100 | > 100 | > 100 | > 100 | > 100
CCOC(=O)c1c(-c2ccc(Br)cc2)ccn1C |  | > 10 | > 10 | > 10 | > 10 | > 10 | > 10 | > 10 | > 10 | > 10 | > 10 | > 10 | > 10 | > 10 | > 10 | > 10 | > 10 | > 10 | > 10 | > 10
NC(Cc1ccc(S(=O)(=O)O)cc1)C(=O)NC(Cc1ccc(S(=O)(=O)O)cc1)C(=O)NC(Cc1ccc(S(=O)(=O)O)cc1)C(=O)O (stereo not given) |  | > 100 |  | > 100 | > 100 | > 100 | > 100 | > 100 | > 100 | > 100 | > 100 | > 100 | > 100 | > 100 | > 100 | > 100 | > 100 | > 100 | > 100 | > 100
COC(=O)C1=CN(C2CCCCC2)C2(c3ccccc3)c3ccccc3C(=O)OC(=O)C12 (stereo not given) | > 100 | > 100 | > 100 |  | > 100 | > 100 | > 100 |  | > 100 | > 100 | > 100 | > 100 | > 100 | > 100 | > 100 | > 100 | > 100 | > 100 | > 100 | > 100
O=S(=O)(c1ccccc1)n1cc(C[P+](c2ccccc2)(c2ccccc2)c2ccccc2)c2ccccc21 | 5.53 | 22 | 7.86 |  | 26.9 | 16.8 | 17.8 | 17.8 |  |  | 11.3 | 18.1 | 12.6 | 15.8 | 14.2 | 12.8 | 13.5 | 24.3 | 7.04 | 
CC(=O)C(CN(C)C)C(c1ccccc1)c1c(O)c2ccccc2oc1=O (stereo not given) | > 100 | > 100 | > 100 |  | > 100 | > 100 | > 100 | > 100 |  |  | > 100 | > 100 | > 100 | > 100 | > 100 | > 100 | > 100 | > 100 | > 100 | 
O=c1[nH]nc(Cn2c3ccc(Br)cc3c3nc4ccccc4nc32)n1C1CCCCC1 | 63.3 | > 100 | > 100 | > 100 | > 100 | 46 | 40.9 | 81.1 | > 100 | > 100 |  | > 100 | 52.8 | > 100 | > 100 |  | > 100 | > 100 | > 100 | > 100
COc1ccc2c(c1)CC1c3c(ccc(OC)c3O)CC2N1C (stereo not given) | 70.9 | > 100 | > 100 |  | > 100 | 54.6 | > 100 | > 100 |  |  | 37.9 | > 100 | > 100 | > 84.3 | 58.9 | 80.6 | > 100 | 47.1 | 32 | 
